In US4690940A, “Anti-hypertensive agents” (University of Miami, priority 1979, dated 1987):
Non-standard residues stand in square brackets, D forms with d. Residues, ends and D or L forms follow the SMILES beside them. No end group written: not given here. pGlu = O=C1CC[C@@H](C(=O)O)N1

Legend:
ACE [1] = conditions: competitive substrates; cited from earlier work
[2] = tested on: ACE purified from human urine; assay: ACE activity assay (hydrolysis of Benzoyl-GlyHisLeu), I50 determination; assay type: biochemical; conditions: in vitro, pH 8.0, 37° C
Experimental: These factors include the source of enzyme, its purity, the substrate used and its concentration, and the composition of the assay buffer. All I50 data reported herein have been performed with the same assay system and same enzyme (human urinary ACE) and with an approximately 1/2Km level of substrate and are therefore internally consistent.
ACE activity assay. […] To initiate the assay, 40 μl of enzyme and 10 μl of water or inhibitor dissolved in water were preincubated for five minutes at 37° C. […] To terminate the reaction, 1 ml of 0.1M HCl was added, following which 1 ml of ethyl acetate was added. The mixture was agitated on a rotary mixer and centrifuged briefly to separate the phases.
An aliquot, 500 μl, of the ethyl acetate layer was transferred to a liquid scintillation vial containing 10 ml of Riafluor, trademark New England Nuclear Corporation, Boston, Massachusetts. For determination of I50 values, enzyme activity in the presence of inhibitor at a series of different concentrations was compared to activity in the absence of inhibitor.

ACE [3] = conditions: disulfide formed by dimerization of SQ 14,225; believed; cited from earlier work
[4] = tested on: Blood Pressure Response to 400 ng/kg of Angiotensin I; assay: Intravenous effectiveness: blood pressure response to angiotensin I in anesthetized rats; assay type: in vivo, rat; conditions: 400 ng/kg angiotensin I, -5 minutes
Experimental: (§1) Rats (210-290 g body weight) were fasted overnight and then anesthetized with intraperitoneal pentobarbital, 50-60 mg/kg. Tracheostomy was performed and the animals were ventilated mechanically. A cannula was inserted into a femoral vein for injection of angiotensin I, and a second cannula was inserted into a common carotid artery for direct measurement of arterial blood pressure. Heparin, 1,000 units, was injected via the femoral vein to prevent coagulation. Blood pressure was measured with a pressure transducer connected to a polygraph. The rats were injected with 400 ng/kg of angiotensin I in 20 μl of 0.9 g % NaCl; an amount of angiotensin I sufficient to raise mean arterial blood pressure by 39 mm Hg. […] At timed intervals, the effects of 400 ng/kg of angiotensin I on mean arterial blood pressure were tested.
At time intervals, the effects of angiotensin I, 400 ng/kg, on mean arterial blood pressure were tested.

[5] = tested on: Blood Pressure Response to 400 ng/kg of Angiotensin I; assay: Oral effectiveness: blood pressure response to angiotensin I in anesthetized rats; assay type: in vivo, rat; conditions: 400 ng/kg angiotensin I, before drug
Experimental: as §1

Row | IC50 [2] | Compound | Km relative to angiotensin I (ACE [1]) | also measured
1 | – | C[C@H](NC(=O)[C@H](Cc1c[nH]c2ccccc12)NC(=O)[C@H](CCCCN)NC(=O)[C@@H]1CCC(=O)N1)C(=O)N1CCC[C@H]1C(=O)O [BPP5a, <GluLysTrpAlaPro] ([pGlu]KWAP-OH) | a lower Km than angiotensin I | –
2 | 25 nM | C[C@H](CSC(=O)[C@H](Cc1ccccc1)NC(=O)[C@H](CCCCNC(=O)OC(C)(C)C)NC(=O)C1CCCC1)C(=O)N1CCC[C@H]1C(=O)O [Example 17] | – | –
3 | – | C[C@H](CSSC[C@@H](C)C(=O)N1CCC[C@H]1C(=O)O)C(=O)N1CCC[C@H]1C(=O)O [disulfide] | – | inhibitory activity of dimer (ACE [3]): largely inactive as an inhibitor
4 | – | DRVYIHPFHL [angiotensin I] | – | rise of mean arterial blood pressure by angiotensin I [4]: 39 mm Hg; rise of mean arterial blood pressure by angiotensin I [5]: 39 mm Hg
5 | – | RPPGFSPFR [bradykinin] | a lower Km than angiotensin I | –
6 | 15 nM | C[C@H](CSC(=O)[C@H](Cc1ccccc1)NC(=O)[C@H](CCCCN)NC(=O)C1CCCC1)C(=O)N1CCC[C@H]1C(=O)O [Example 18, N^α -[3-(N^α -cyclopentylcarbonyl-L-lysyl-L-phenylalanylthio)2-D-methylpropanoyl]-L-proline] | – | –
